Results from ChEMBL document CHEMBL3112505, “Discovery of novel indazole derivatives as dual angiotensin II antagonists and partial PPARγ agonists” (Bioorg Med Chem Lett, 2014).
Calls of active or inactive are those of the source. The calls are words filed in the database; no cut-off is given here.

Columns and labels:
[1] = target: T1, Peroxisome proliferator-activated receptor gamma (Mus musculus, UniProt P37238); test: Agonist activity at mouse PPARgamma expressed in CV-1 cells by reporter gene assay; type: cell-based
T1 sequence (P37238 whole entry): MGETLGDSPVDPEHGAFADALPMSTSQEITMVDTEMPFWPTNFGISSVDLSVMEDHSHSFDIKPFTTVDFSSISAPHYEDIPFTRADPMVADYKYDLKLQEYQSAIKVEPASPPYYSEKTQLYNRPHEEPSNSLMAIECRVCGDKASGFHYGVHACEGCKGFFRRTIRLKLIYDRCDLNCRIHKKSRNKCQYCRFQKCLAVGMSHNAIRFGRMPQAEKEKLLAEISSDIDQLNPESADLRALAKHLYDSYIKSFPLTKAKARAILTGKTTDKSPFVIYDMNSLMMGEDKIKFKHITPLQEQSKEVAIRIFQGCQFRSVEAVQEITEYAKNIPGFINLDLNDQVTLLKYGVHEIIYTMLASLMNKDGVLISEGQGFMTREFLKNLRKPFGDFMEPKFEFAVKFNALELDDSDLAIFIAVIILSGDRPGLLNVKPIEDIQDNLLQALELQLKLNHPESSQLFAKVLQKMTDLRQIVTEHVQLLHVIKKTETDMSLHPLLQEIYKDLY

[2] = target: T2, Peroxisome proliferator-activated receptor gamma (Mus musculus) (UniProt P37238); test: Agonist activity at mouse PPARgamma expressed in CV-1 cells by reporter gene assay relative to rosiglitazone; type: cell-based
T2 sequence (whole entry): T1 sequence (P37238 whole entry)

[3] = target: T3, Peroxisome proliferator-activated receptor alpha (Mus musculus, UniProt P23204); test: Agonist activity at mouse PPARalpha expressed in CV-1 cells by reporter gene assay; type: cell-based
T3 sequence (P23204 whole entry): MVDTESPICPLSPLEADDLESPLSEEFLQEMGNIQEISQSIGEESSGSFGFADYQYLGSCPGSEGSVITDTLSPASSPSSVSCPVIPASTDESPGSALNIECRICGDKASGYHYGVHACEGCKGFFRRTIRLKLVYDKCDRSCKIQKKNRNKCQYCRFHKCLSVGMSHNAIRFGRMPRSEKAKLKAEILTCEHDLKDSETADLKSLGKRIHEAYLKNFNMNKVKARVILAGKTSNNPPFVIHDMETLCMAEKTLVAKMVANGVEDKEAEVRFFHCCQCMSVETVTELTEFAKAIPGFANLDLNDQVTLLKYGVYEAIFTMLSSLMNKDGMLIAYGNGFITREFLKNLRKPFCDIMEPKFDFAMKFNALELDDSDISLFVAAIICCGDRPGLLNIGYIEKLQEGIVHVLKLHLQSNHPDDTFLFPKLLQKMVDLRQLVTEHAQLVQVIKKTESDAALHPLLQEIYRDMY

[4] = target: T4, Peroxisome proliferator-activated receptor gamma (Homo sapiens, UniProt P37231); test: Agonist activity at human PPARgamma expressed in CV-1 cells by reporter gene assay; type: cell-based
T4 sequence (P37231 whole entry): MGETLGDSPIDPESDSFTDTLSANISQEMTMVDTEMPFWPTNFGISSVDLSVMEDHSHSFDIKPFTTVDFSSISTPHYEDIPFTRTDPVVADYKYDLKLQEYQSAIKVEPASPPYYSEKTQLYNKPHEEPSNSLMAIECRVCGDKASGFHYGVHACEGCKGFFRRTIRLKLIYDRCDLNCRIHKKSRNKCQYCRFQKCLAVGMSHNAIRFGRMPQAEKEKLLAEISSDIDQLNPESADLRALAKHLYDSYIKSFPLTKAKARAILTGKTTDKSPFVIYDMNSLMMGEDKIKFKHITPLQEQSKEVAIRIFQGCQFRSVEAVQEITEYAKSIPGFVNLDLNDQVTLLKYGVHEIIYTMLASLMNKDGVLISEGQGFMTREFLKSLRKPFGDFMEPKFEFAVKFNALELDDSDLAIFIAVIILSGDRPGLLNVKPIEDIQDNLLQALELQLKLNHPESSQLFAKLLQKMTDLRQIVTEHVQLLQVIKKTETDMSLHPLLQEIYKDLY

[5] = target: T5, Type-1 angiotensin II receptor (Homo sapiens, UniProt P30556); test: Antagonist activity at human AT1 receptor expressed in CHO cells measured after overnight incubation by luciferase reporter gene assay; type: cell-based
T5 sequence (P30556 whole entry): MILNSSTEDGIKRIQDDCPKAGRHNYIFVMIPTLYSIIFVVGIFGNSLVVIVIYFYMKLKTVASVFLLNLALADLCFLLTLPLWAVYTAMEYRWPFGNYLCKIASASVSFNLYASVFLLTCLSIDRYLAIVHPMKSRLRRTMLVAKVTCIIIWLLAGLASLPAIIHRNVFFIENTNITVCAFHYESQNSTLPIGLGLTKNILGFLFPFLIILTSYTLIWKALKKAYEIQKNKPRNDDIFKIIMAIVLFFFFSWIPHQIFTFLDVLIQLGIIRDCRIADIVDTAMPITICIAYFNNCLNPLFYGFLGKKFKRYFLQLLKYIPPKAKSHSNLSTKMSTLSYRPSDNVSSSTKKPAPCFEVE

[6] = target: T6, Peroxisome proliferator-activated receptor delta (Mus musculus, UniProt P35396); test: Agonist activity at mouse PPARdelta expressed in CV-1 cells by reporter gene assay; type: cell-based
T6 sequence (P35396 whole entry): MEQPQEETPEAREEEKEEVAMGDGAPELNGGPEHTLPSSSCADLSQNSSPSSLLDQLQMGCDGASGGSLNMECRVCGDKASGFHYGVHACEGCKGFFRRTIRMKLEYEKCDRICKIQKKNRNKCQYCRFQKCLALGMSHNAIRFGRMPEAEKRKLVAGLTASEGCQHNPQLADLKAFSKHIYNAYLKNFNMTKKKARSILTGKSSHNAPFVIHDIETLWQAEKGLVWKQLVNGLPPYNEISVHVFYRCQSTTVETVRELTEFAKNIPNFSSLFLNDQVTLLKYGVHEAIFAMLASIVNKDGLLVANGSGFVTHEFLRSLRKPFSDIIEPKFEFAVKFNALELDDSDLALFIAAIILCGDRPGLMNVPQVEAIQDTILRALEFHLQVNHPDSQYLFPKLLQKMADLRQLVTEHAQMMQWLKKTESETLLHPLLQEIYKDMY

[7] = tested on: Rattus norvegicus; test: Toxicity in Zucker fa/fa rat assessed as increase in body weight gain at 75 mg/kg, po qd for 5 days relative to vehicle-treated control control; type: organism-based; set-up: dose 75 mg/kg, route oral; settings: in vivo, 120 h
[8] = tested on: Rattus norvegicus; test: Reduction in insulin level in Zucker fa/fa rat plasma at 1 mg/kg, po qd for 5 days relative to vehicle-treated control control; type: functional, organism-based; set-up: dose 1 mg/kg
[9] = tested on: Rattus norvegicus; test: Reduction in free fatty acid level in Zucker fa/fa rat plasma at 1 mg/kg, po qd for 5 days relative to vehicle-treated control control; type: functional, organism-based; set-up: dose 1 mg/kg
[10] = tested on: Rattus norvegicus; test: Toxicity in Zucker fa/fa rat assessed as increase in body weight gain at 1 mg/kg, po qd for 5 days relative to vehicle-treated control control; type: organism-based; set-up: dose 1 mg/kg, route oral; settings: in vivo, 120 h
[11] = tested on: Rattus norvegicus; test: Reduction in triglyceride level in Zucker fa/fa rat plasma at 1 mg/kg, po qd for 5 days relative to vehicle-treated control control; type: functional, organism-based; set-up: dose 1 mg/kg

Row | SMILES | EC50 [1] [nM] | max activation [2] [%] | EC50 [3] [nM] | EC50 [4] [nM] | IC50 [5] [nM] | EC50 [6] [nM] | Activity [7] | Activity [8] | Activity [9] | Activity [10] | Activity [11]
1 | CN(CCOc1ccc(C[C@H](Nc2ccccc2C(=O)c2ccccc2)C(=O)O)cc1)c1ccccn1 | – | – | – | – | – | – | Non-toxic | Active | Active | Toxic | Active
2 | CCCc1nc2cc(C(=O)NC(CC)c3ccccc3)ccc2n1Cc1ccc(-c2ccccc2C(=O)O)cc1 (stereo unspecified) | – | – | – | 2650 | 128 | – | – | – | – | – | –
3 | CCCc1nn2ccc(C(=O)NC(CC)c3ccccc3)cc2c1Cc1ccc(-c2ccccc2-c2nn[nH]n2)cc1 (stereo unspecified) | – | 9 | – | – | – | – | – | – | – | – | –
4 | CCCc1nc2ccc(C(=O)NC(CC)c3ccccc3)cc2n1Cc1ccc(-c2ccccc2C(=O)O)cc1 (stereo unspecified) | – | – | – | – | 288 | – | – | – | – | – | –

Further lines, with some results ahead:

Row | EC50 [1] [nM] | max activation [2] [%] | EC50 [3] [nM] | EC50 [4] [nM] | IC50 [5] [nM] | EC50 [6] [nM] | SMILES | Activity [7] | Activity [8] | Activity [9] | Activity [10] | Activity [11]
5 | 510 | 24 | > 10000 | 350 | > 10000 | – | CCCc1[nH]c2ccc(C(=O)NC(CC)c3ccccc3)cc2c1Cc1ccc(-c2ccccc2C(=O)O)cc1 (stereo unspecified) | – | – | – | – | –
6 | 130 | – | > 10000 | 80 | 23 | > 10000 | CCCc1nn2ccc(-c3nc4ccccc4n3CCC)cc2c1Cc1ccc(-c2ccccc2-c2nnn[nH]2)cc1 | – | – | – | – | –
7 | 1390 | 37 | > 10000 | 640 | 60 | > 10000 | CCCCn1c(-c2ccc3nn(CCC)c(Cc4ccc(-c5ccccc5C(=O)O)cc4)c3c2)nc2ccccc21 | – | – | – | – | –
8 | 1020 | 32 | > 10000 | 390 | 1690 | > 10000 | CCCc1nn2ccc(C(=O)NC(CC)c3ccccc3)cc2c1Cc1ccc(-c2ccccc2C(=O)O)cc1 (stereo unspecified) | – | – | – | – | –
